Where two headings read alike, the source gives them in different places. Ends that are not written are not given here.

The source of these data is article PMC7721913 (The Journal of Cell Biology, 2020).

The test system of one assay is SFPQ. The assay is described as follows: Coimmunoprecipitation of endogenous SFPQ from DRG lysate, Western blot. Particulars: DRG sensory neuron lysate. It counts as binding, rat.
Assay [1] concerns the target KLC1 TPR1-6 fragment (KLC1: 205-501) (Homo sapiens, UniProt Q07866). The assay is described as follows: ITC binding of SFPQ peptides to KLC1.
Another assay deals with KLC1 TPR1-6. Particulars: cited from earlier work.

Sequence of KLC1 TPR1-6 fragment (KLC1: 205-501) (Q07866 205-501): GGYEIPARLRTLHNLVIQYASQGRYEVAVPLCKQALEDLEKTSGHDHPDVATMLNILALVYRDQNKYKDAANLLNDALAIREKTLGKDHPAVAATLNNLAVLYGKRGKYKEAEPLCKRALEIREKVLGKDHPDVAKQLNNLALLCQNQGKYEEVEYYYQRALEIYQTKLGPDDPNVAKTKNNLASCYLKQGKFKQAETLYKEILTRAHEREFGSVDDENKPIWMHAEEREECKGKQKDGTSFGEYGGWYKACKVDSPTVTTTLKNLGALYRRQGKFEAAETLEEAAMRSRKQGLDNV

For “KIF1A: axonal transport motor protein in DRGs”, the “coimmunoprecipitation with SFPQ (in words)” value in the assay on SFPQ is on record as “none of these kinesins significantly coimmunoprecipitates with SFPQ”.
In the case of ESEMEDAAHEHQANLLR [SFPQ^Y527A peptide], the “binding to KLC1 (in words)” value in assay [1] (ITC, 25°C, pH 7.5) is reported as “did not bind to KLC1”. Besides, the ΔS result in assay [1] (ITC, 20 mM Hepes (pH 7.5), 150 mM NaCl, 0.5 mM TCEP, 2% DMSO, 25°C) is recorded as “No binding”. Also, the ΔH result in assay [1] (ITC, 20 mM Hepes (pH 7.5), 150 mM NaCl, 0.5 mM TCEP, 2% DMSO, 25°C, single-site model) is “No binding”.
In assay [1], ESEMEDAYHEHQANLLR [WT SFPQ peptide] showed a Kd of 3.83 ± 2.31 µM.
Turning to TCPTEDIYLE [JIP1: TCPTEDIYLE], the Kd at KLC1 TPR1-6 (KLC1: 205-502, ref Nguyen et al., 2018) was 5 ± 0.5 µM.
As for “KIF3A: kinesin transporting RNA granules in neurons”, the “coimmunoprecipitation with SFPQ (in words)” value in the assay with SFPQ is recorded as “none of these kinesins significantly coimmunoprecipitates with SFPQ”.
Consider EYTCPTEDIYLE [JIP1: EYTCPTEDIYLE], for which, at KLC1 TPR1-6 (KLC1: 228-495, ref Zhu et al., 2012), the Kd is 9.4 ± 5.85 µM.
